Experimental data from US6369092B1, “Method for treating neoplasia by exposure to substituted benzimidazole derivatives” (Cell Pathways, Inc., priority 1998, dated 2002).

CCCc1nc2ccc(NC(=O)OC(C)(C)C)cc2n1Cc1ccccc1Cl [I, 6-t-Butoxycarbonylamino-1-(2-Chlorobenzyl)-2-n-Propylbenzimidazole]
melting point: 166 to 168 °C
